Here are results for 25 compounds from patent US20250230138A1, “COMPOUNDS HAVING A T-STRUCTURE FORMED BY AT LEAST FOUR CYCLES FOR USE IN THE TREATMENT OF CANCER AND OTHER INDICATIONS” (TheRas, Inc., priority 2022, published 2025).

Like-named read-outs stand apart in the source and are kept apart here.

Experiment [1] concerns the target Cys242 in human PIK3CA (157-299) (Homo sapiens (Human), UniProt P42336). Briefly: Covalent modification assay using MALDI-TOF MS. In kind it is biochemical. The settings on record: 4 h reaction time point. The method, boiled down: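 Covalent adduct formation was read by linear-mode MALDI-TOF with sinapinic acid matrix, reported as modified-protein peak height divided by total protein peak heights. Reactions held PIK3CA (157-299) at 1 or 3.33 μM in HEPES/NaCl/MgCl2 buffer, pH 7.3, sampled after 15 min to 4 h at room temperature.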

Experiment [2] relates to pAKT in BT474 cells. Briefly: Cell-based pAKT HTRF assay in BT474 cells. The settings on record: BT474 cells, 4 hr incubation, read-out: pAKT inhibition IC50 in BT474 cells. The method, boiled down:
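Cells grown in DMEM with 10% FBS were exposed to compounds for 4 hr in 0.25% DMSO, using a 9-point, 3-fold dilution series that starts at 3 μM. Lysates were incubated with d2 and Eu Cryptate antibodies for 4–24 h at room temperature, and HTRF was read at 615 nm emission.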

Where [3] appears, read: 3.33 μM protein target, 1:7.5 protein to compound ratio (compounds 1-852).
Where [4] appears, read: 1 μM protein target, 1:5 protein to compound ratio (compounds 853-1279).
[5] abbreviates: Homo sapiens, BT-474, Compounds 10-999.

Chain of Cys242 in human PIK3CA (157-299) (P42336 157-299): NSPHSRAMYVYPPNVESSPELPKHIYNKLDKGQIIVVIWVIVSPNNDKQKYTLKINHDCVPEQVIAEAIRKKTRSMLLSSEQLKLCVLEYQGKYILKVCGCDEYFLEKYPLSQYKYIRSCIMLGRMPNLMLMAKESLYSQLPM

One may read the IC50 as the concentration needed to halve the response being measured. Consider `C=CC(=O)N1CCc2nc(-c3nc(-c4ccc5nn(C)cc5c4)c4ccsc4c3-c3c(F)cc(F)cc3OCCOC)sc2C1` [Compound 427], for which the “% of modification” value in experiment [1] (setting [3]) is “A (percent of modification of PIK3CA protein ≥75%)”. For the same compound, the IC50 in experiment [2] (Compounds 10-999) is < 0.1 µM.
The like results for `C=CC(=O)N1CC(n2cc(-c3nc(-c4ccn(C)c(=O)c4)c4ccsc4c3-c3ccc(F)cc3OC)cn2)C1` [Compound 179] were, in that order, “A (percent of modification of PIK3CA protein ≥75%)” and < 0.1 µM.
For the compound `C=CC(=O)N1CCc2nc(-c3nc(-c4ccc5c(c4)CCNC5)c4ccsc4c3-c3c(F)cc(F)cc3OC(C)C)sc2C1` [Compound 367], the “% of modification” value in experiment [1] (setting [3]) is “A (percent of modification of PIK3CA protein ≥75%)”. Also, in experiment [2] (Compounds 10-999), the IC50 lay in the range of 0.1 to 1 µM.
For `C=CC(=O)N1Cc2cc(-c3nc(-c4cnn(C)c4)c4ccsc4c3-c3c(F)cc(F)cc3OCCO)nn2[C@@H](C)C1` [Compound 566] the same measures were “D (percent of modification <25%)” and 0.1 to 1 µM.
The like results for `C=CC(=O)N1CCn2nc(-c3nc(-c4cnnc(C)c4)c4ccsc4c3-c3c(F)cc(F)cc3OCCOC)cc2C1C` (centres unmarked) [Compound 790] were, in that order, “A (percent of modification of PIK3CA protein ≥75%)” and < 0.1 µM.
For `C=CC(=O)N1Cc2cc(-c3nc(-c4ccc5c(c4)CCN(C)C5)c4ccsc4c3-c3c(F)cc(F)cc3OC)nn2C(C)C1` (centres unmarked) [Compound 484] the same measures were “A (percent of modification of PIK3CA protein ≥75%)” and < 0.1 µM.
Consider `C=CC(=O)N1CCn2nc(-c3nc(-c4ccn(C5CN(C)C5)c(=O)c4)c4ccsc4c3-c3c(F)cc(F)cc3OCCOC)cc2C1C` (centres unmarked) [Compound 1080], for which the “% of modification” value in experiment [1] (setting [4]) is given as “A (percent of modification of PIK3CA protein ≥75%)”. In addition, in experiment [2] (Compounds 1000-1279), the IC50 is < 0.1 µM.
For the compound `C=CC(=O)N1CCn2nc(-c3nc(-c4cnn(C)c4)c4ccsc4c3-c3c(F)cc(F)cc3F)cc2C1` [Compound 292], the “% of modification” value in experiment [1] (setting [3]) is given as “A (percent of modification of PIK3CA protein ≥75%)”. Also, the IC50 in experiment [2] (Compounds 10-999) fell in the range of 0.1 to 1 µM.
In the case of `C=CC(=O)N1CCn2nc(-c3nc(-c4ccc5c(c4)CCNC5)c4ccsc4c3-c3ccc(F)cc3OCCOC)cc2C1` [Compound 115, 1-[2-[7-[4-fluoro-2-(2-methoxyethoxy)phenyl]-4-(1,2,3,4-tetrahydroisoquinolin-6-yl)thieno[3,2-c]pyridin-6-yl]-6,7-dihydro-4H-pyrazolo[1,5-a]pyrazin-5-yl]prop-2-en-1-one], in experiment [1] (setting [3]), the “% of modification” value is given as “A (percent of modification of PIK3CA protein ≥75%)”. The concentration for half-maximal inhibition (IC50) in experiment [2] (setting [5]) was < 0.1 µM.
For `C=CC(=O)N1Cc2cc(-c3nc(-c4ccc5cnncc5c4)c4ccsc4c3-c3c(F)cc(F)cc3OCCO)nn2CC1C` (centres unmarked) [Compound 853], the “% of modification” value in experiment [1] (setting [4]) is reported as “A (percent of modification of PIK3CA protein ≥75%)”. Further, the half-inhibitory concentration (IC50) in experiment [2] (Compounds 10-999) is < 0.1 µM.
Regarding `C=CC(=O)N1CCn2nc(-c3nc(N4CC5(CNC(=O)C5)C4)c4ccsc4c3-c3c(F)cc(F)cc3OCCOC)cc2C1C` (centres unmarked) [Compound 1013], in experiment [1] (setting [4]), the “% of modification” value is on record as “A (percent of modification of PIK3CA protein ≥75%)”. Also, in experiment [2] (Compounds 1000-1279), the IC50 lay within 0.1 to 1 µM.
Take `C=CC(=O)N1CCn2nc(-c3nc(-c4ccc5c(c4)C(=O)NC5)c4ccsc4c3-c3c(F)cc(F)cc3OCCO)cc2[C@H]1C` [Compound 852, 6-((S)-6-((R)-5-acryloyl-4-methyl-4,5,6,7-tetrahydropyrazolo[1,5-a]pyrazin-2-yl)-7-(2,4-difluoro-6-(2-hydroxyethoxy)phenyl)thieno[3,2-c]pyridin-4-yl)isoindolin-1-one]: in experiment [1] (setting [3]), the “% of modification” value was “A (percent of modification of PIK3CA protein ≥75%)”. For the same compound, in experiment [2] (setting [5]), the 50% inhibitory concentration (IC50) is < 0.1 µM.
Consider `C=CC(=O)N1CCn2nc(-c3nc(-c4cnc(C)nc4)c4ccsc4c3-c3c(F)cc(F)cc3OCC(C)O)cc2C1C` (centres unmarked) [Compound 791], for which, in experiment [1] (setting [3]), the “% of modification” value is “A (percent of modification of PIK3CA protein ≥75%)”. Besides, the half-maximal inhibitory concentration (IC50) in experiment [2] (Compounds 10-999) is < 0.1 µM.
The like results for `C=CC(=O)N1CCc2nc(-c3nc(-c4cnc5c(c4)CCN(C)C5)c4ccsc4c3-c3c(F)cc(F)cc3OCCOC)sc2C1` [Compound 521] were, in that order, “A (percent of modification of PIK3CA protein ≥75%)” and < 0.1 µM.
The like results for `C=CC(=O)N1CCc2nc(-c3nc(-c4ccc5c(c4)CCN(C)C5)c4ccsc4c3-c3c(F)cc(F)cc3OC(C)C)sc2C1` (single isomer, unassigned) [Compound 448] were, in that order, “A (percent of modification of PIK3CA protein ≥75%)” and < 0.1 µM.
As to `C=CC(=O)N1CCc2ccc(-c3nc(-c4ccc5c(c4)CNC5=O)c4ccsc4c3-c3c(F)cc(F)cc3OCCO)cc2C1` (single isomer, unassigned) [Compound 962], the “% of modification” value in experiment [1] (setting [4]) was “A (percent of modification of PIK3CA protein ≥75%)”. Moreover, the half-maximal inhibitory concentration (IC50) in experiment [2] (Compounds 10-999) is < 0.1 µM.
As to `C=CC(=O)N1CCn2nc(-c3nc(-c4cnn(C)c4)c4ccsc4c3-c3c(F)cc(F)cc3OC[C@@H](C)O)cc2[C@H]1C` [Compound 753], the “% of modification” value in experiment [1] (setting [3]) was “A (percent of modification of PIK3CA protein ≥75%)”. Besides, the IC50 in experiment [2] (Compounds 10-999) is < 0.1 µM.
For `C=CC(=O)N1CCn2nc(-c3nc(-c4ccc5c(c4)ncn5C)c4ccsc4c3-c3c(F)cc(F)cc3OCCO)cc2[C@H]1C` [Compound 651] the same measures were “C (25%≤percent of modification <50%)” and < 0.1 µM.
As for `C=CC(=O)N1CCn2nc(-c3nc(-c4ccc5c(c4)CCN(C)C5)c4ccsc4c3-c3c(F)cc(F)cc3OCCO)cc2C1C` (centres unmarked) [Compound 537], the “% of modification” value in experiment [1] (setting [3]) was “A (percent of modification of PIK3CA protein ≥75%)”. Also, the 50% inhibitory concentration (IC50) in experiment [2] (Compounds 10-999) is < 0.1 µM.
As to `C=CC(=O)N1CCn2nc(-c3nc(-c4cncc(OCCN(C)C)c4)c4ccsc4c3-c3c(F)cc(F)cc3OCCOC)cc2C1C` (centres unmarked) [Compound 1099], in experiment [1] (setting [4]), the “% of modification” value is on record as “A (percent of modification of PIK3CA protein ≥75%)”. For the same compound, in experiment [2] (Compounds 1000-1279), the concentration for half-maximal inhibition (IC50) is < 0.1 µM.
The like results for `C=CC(=O)N1CCc2cc(-c3nc(-c4ccc5c(c4)CNC(=O)C5)c4ccsc4c3-c3c(F)cc(F)cc3OCCOC)nn2CC1` [Compound 1024] were, in that order, “A (percent of modification of PIK3CA protein ≥75%)” and < 0.1 µM.
In the case of `C=CC(=O)N1CCc2nc(-c3nc(-c4ccc5c(c4)CCNC5=O)c4ccsc4c3-c3ccc(F)cc3OCCOC)sc2C1` [Compound 118, 6-[7-[4-fluoro-2-(2-methoxyethoxy)phenyl]-6-(5-prop-2-enoyl-6,7-dihydro-4H-thiazolo[5,4-c]pyridin-2-yl)thieno[3,2-c]pyridin-4-yl]-3,4-dihydro-2H-isoquinolin-1-one], in experiment [1] (setting [3]), the “% of modification” value was “A (percent of modification of PIK3CA protein ≥75%)”. Further, the IC50 in experiment [2] (setting [5]) was < 0.1 µM.
In the case of `C=CC(=O)N1CCc2ccc(-c3nc(-c4ccc5c(c4)CN(C)CC5(F)F)c4ccsc4c3-c3c(F)cc(F)cc3OCCOC)cc2C1` [Compound 1272], the “% of modification” value in experiment [1] (setting [4]) is reported as “D (percent of modification <25%)”. For the same compound, the IC50 in experiment [2] (Compounds 1000-1279) is > 1 µM.
For the compound `C=CC(=O)N1Cc2cc(-c3nc(-c4ccc5c(c4)CCN(C)C5)c4ccsc4c3-c3c(F)cc(F)cc3OC)nn2[C@@H](C)C1` [Compound 562], in experiment [1] (setting [3]), the “% of modification” value is “C (25%≤percent of modification <50%)”. The half-inhibitory concentration (IC50) in experiment [2] (Compounds 10-999) lay within 0.1 to 1 µM.
For `C=CC(=O)N1Cc2cc(-c3nc(-c4ccc5cn(C)nc5c4)c4ccsc4c3-c3c(F)cc(F)cc3OCCOC)nn2[C@@H](C)C1` [Compound 742] the same measures were “A (percent of modification of PIK3CA protein ≥75%)” and < 0.1 µM.
